The source of these data is patent US8747890B2 (priority 2009, dated 2014).

Data set [1] is described as follows: Extrapolation of blood Cmax to an 80 kg human after intravenous infusion. Conditions: 440 mg/M^2 one hour infusion.
The conditions of data set [2]: human, whole blood, iv, 9 mg/m2.

Consider `COc1cc(C=CC(=O)CC(=O)C=Cc2ccc(O)c(OC)c2)ccc1O` [curcumin, 1,7-bis(4-hydroxy-3-methoxyphenyl)-1,6-heptadiene-3,5-dione], for which the “Cmax extrapolated to humans” value in data set [1] is 160000 ng/mL. In addition, in data set [2], the Cmax – broadly, the highest concentration seen after dosing – turned out to be 3400 ng/mL.
